Where a SMILES comes first, the peptide text is derived from it. [ ]: non-standard residue; d: D form. The star is where a group is joined. ξ: configuration not given here. NMeW = CN[C@@H](Cc1c[nH]c2ccccc12)C(=O)O; Palmitoyl = CCCCCCCCCCCCCCCC(=O)*; ξαMeV = CC(C)C(C)(N)C(=O)O; ξαMeS = CC(N)(CO)C(=O)O
Legend:
[1] = target: T1, β-catenin (Homo sapiens, UniProt P35222); test: KD50 measurement using competitive fluorescence polarization (FP) with labelled TCF4; type: binding; conditions: fluorescence polarization, β-catenin; for Kd: read-out: β-Cat FP KD
T1 sequence (P35222 1-781): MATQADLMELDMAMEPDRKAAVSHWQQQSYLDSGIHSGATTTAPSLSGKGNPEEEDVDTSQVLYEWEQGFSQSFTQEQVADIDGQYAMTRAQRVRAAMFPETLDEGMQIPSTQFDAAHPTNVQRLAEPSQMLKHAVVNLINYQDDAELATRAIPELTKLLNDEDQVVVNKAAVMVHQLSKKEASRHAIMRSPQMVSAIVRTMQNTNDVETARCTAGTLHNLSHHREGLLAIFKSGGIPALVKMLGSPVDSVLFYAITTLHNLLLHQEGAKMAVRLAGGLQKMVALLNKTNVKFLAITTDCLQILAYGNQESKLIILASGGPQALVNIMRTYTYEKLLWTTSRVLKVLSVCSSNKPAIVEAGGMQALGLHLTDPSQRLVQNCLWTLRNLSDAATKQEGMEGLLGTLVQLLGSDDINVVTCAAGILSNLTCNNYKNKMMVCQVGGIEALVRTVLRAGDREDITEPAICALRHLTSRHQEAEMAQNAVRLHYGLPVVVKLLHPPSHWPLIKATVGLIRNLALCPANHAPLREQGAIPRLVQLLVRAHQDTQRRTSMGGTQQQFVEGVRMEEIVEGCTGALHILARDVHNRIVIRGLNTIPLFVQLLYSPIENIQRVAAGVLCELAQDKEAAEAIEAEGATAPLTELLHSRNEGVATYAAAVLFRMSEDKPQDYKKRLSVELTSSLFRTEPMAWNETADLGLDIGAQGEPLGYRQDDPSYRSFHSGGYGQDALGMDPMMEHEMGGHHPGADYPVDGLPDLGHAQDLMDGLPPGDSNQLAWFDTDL
Procedure, shortened: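 Labelled TCF4 (5 nM) mixed with 100 nM β-catenin at room temperature; inhibitor added as serial dilutions from 10 nM to 30 uM. Polarization read at excitation 470 nm/emission 520 nm; binding displacement lowers polarization. Three independent runs.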

[2] = target: Wnt-responsive promoter (TCF/LEF); test: Wnt-dependent luciferase reporter assay; type: cell-based, murine
Protocol: The luciferase reporter assay is commonly used as a tool to study gene expression at the transcriptional level. Peptides from libraries described herein were characterized for ability to suppress transcription in cells with luciferase expression controlled by a Wnt-responsive promoter. Peptides were added to cells transfected with luciferase gene downstream of a Wnt-responsive promoter. Cells were stimulated with Wnt3a protein and incubated with peptides from libraries described herein. Luminescence was recorded to determine the peptides with the highest β-catenin-inhibiting activity. EC50 values were calculated based on the inhibition of luminescence and expressed as concentration (uM) in Table 5.
Peptides were assessed for their ability to inhibit Wnt signaling. Murine 3T3 fibroblasts that express luciferase under a Wnt-responsive promoter (TCF/LEF) (Enzo Life Sciences, Farmingdale, NY) were stimulated with Wnt3a in the presence of increasing concentrations of peptide inhibitor (Hit 1: SEQ ID NO:217, Hit 2: SEQ ID NO:224, Hit 3: SEQ ID NO:228, Hit 4: SEQ ID NO:227, Hit 5: SEQ ID NO:220, Hit 6: SEQ ID NO:168. Hit 7: SEQ ID NO:226) or with vehicle control (FIG. 2A).

| Structure (SMILES) | β-Cat FP Hill slope [1] | Kd [1] | EC50 [2] |
| --- | --- | --- | --- |
| CC[C@H](C)[C@H](NC(=O)[C@H](CO)NC(=O)[C@H](CCC(=O)O)NC(=O)[C@H](Cc1c[nH]c2ccccc12)N(C)C(=O)[C@@H](N)Cc1c[nH]c2ccccc12)C(=O)N[C@@H](CC(C)C)C(=O)N[C@@H](CC(=O)O)C(=O)N[C@@H](CCC(=O)O)C(=O)N[C@@H](Cc1c[nH]cn1)C(=O)NC(C)(C(=O)N[C@@H](CCC(N)=O)C(=O)N[C@@H](CCCNC(=N)N)C(=O)N[C@H](C(=O)N[C@@H](Cc1c[nH]c2ccccc12)C(=O)NCC(N)=O)C(C)C)C(C)C (some centres unmarked) [compound 39] (HELM PEPTIDE1{W.[meW].E.S.I.L.D.E.H.[CC(C)C(C)(N[*:1])C(=O)[*:2]].Q.R.V.W.G.[am]}$$$$V2.0) | 0.89 | < 0.4 µM | > 30 µM |
| CC[C@H](C)[C@H](NC(=O)C(C)(CO)NC(=O)[C@H](CCC(=O)O)NC(=O)[C@H](Cc1c[nH]c2ccccc12)N(C)C(=O)[C@@H](N)Cc1c[nH]c2ccccc12)C(=O)N[C@@H](CC(C)C)C(=O)N[C@@H](CC(=O)O)C(=O)N[C@@H](CCC(=O)O)C(=O)N[C@@H](Cc1c[nH]cn1)C(=O)N[C@H](C(=O)N[C@@H](CCC(N)=O)C(=O)N[C@@H](CCCNC(=N)N)C(=O)N[C@H](C(=O)N[C@@H](Cc1c[nH]c2ccccc12)C(=O)NCC(N)=O)C(C)C)C(C)C (some centres unmarked) [compound 40] (HELM PEPTIDE1{W.[meW].E.[CC(CO)(N[*:1])C(=O)[*:2]].I.L.D.E.H.V.Q.R.V.W.G.[am]}$$$$V2.0) | 0.88 | < 0.4 µM | > 30 µM |
| CCCCCCCCCCCCCCCC(=O)N[C@@H](Cc1c[nH]c2ccccc12)C(=O)N(C)[C@@H](Cc1c[nH]c2ccccc12)C(=O)N[C@@H](CCC(=O)O)C(=O)NC(C)(CO)C(=O)N[C@H](C(=O)N[C@@H](CC(C)C)C(=O)N[C@@H](CC(=O)O)C(=O)N[C@@H](CCC(=O)O)C(=O)N[C@@H](Cc1c[nH]cn1)C(=O)NC(C)(C(=O)N[C@@H](CCC(N)=O)C(=O)N[C@@H](CCCNC(=N)N)C(=O)N[C@H](C(=O)N[C@@H](Cc1c[nH]c2ccccc12)C(=O)O)C(C)C)C(C)C)[C@@H](C)CC (some centres unmarked) [compound 397] (Palmitoyl-W[NMeW]E[ξαMeS]ILDEH[ξαMeV]QRVW-OH) | – | > 30 µM | 7.5 to 15 µM |
| CC[C@H](C)[C@@H]1NC(=O)[C@@H](NC(=O)[C@H](CCC(N)=O)NC(=O)[C@H](C)N(C)C(=O)[C@@H](N)Cc2c[nH]c3ccccc23)CCCCNC(=O)CC[C@@H](C(=O)N[C@@H](Cc2c[nH]cn2)C(=O)N[C@H](C(=O)N[C@@H](CCC(N)=O)C(=O)N[C@@H](CCCNC(=N)N)C(=O)N[C@H](C(=O)N[C@@H](Cc2c[nH]c3ccccc23)C(=O)NCC(N)=O)C(C)C)C(C)C)NC(=O)[C@H](CC(=O)O)NC(=O)[C@H](CC(C)C)NC1=O [compound 401] (HELM PEPTIDE1{W.[meA].Q.K.I.L.D.E.H.V.Q.R.V.W.G.[am]}$PEPTIDE1,PEPTIDE1,4:R3-8:R3$$$V2.0) | 0.7 | 0.4 to 1 µM | > 30 µM |
| CC[C@H](C)[C@@H]1NC(=O)[C@@H](NC(=O)[C@H](CCC(N)=O)NC(=O)[C@H](C)N(C)C(=O)[C@H](Cc2c[nH]c3ccccc23)NC(C)=O)CCCCNC(=O)CC[C@@H](C(=O)N[C@@H](Cc2c[nH]cn2)C(=O)N[C@H](C(=O)N[C@@H](CCC(N)=O)C(=O)N[C@@H](CCCNC(=N)N)C(=O)N[C@H](C(=O)N[C@@H](Cc2c[nH]c3ccccc23)C(=O)NCC(N)=O)C(C)C)C(C)C)NC(=O)[C@H](CC(=O)O)NC(=O)[C@H](CC(C)C)NC1=O [compound 402] (HELM PEPTIDE1{[ac].W.[meA].Q.K.I.L.D.E.H.V.Q.R.V.W.G.[am]}$PEPTIDE1,PEPTIDE1,5:R3-9:R3$$$V2.0) | 0.7 | < 0.4 µM | > 30 µM |
| CC[C@H](C)[C@@H]1NC(=O)[C@@H](NC(=O)[C@H](CCC(N)=O)NC(=O)[C@H](C)N(C)C(=O)[C@@H](N)Cc2c[nH]c3ccccc23)CCCCNC(=O)CC[C@@H](C(=O)N[C@@H](Cc2c[nH]cn2)C(=O)N[C@H](C(=O)N[C@@H](CCC(N)=O)C(=O)N[C@@H](CCCNC(=N)N)C(=O)N[C@H](C(=O)N[C@@H](Cc2c[nH]c3ccccc23)C(=O)NCC(N)=O)C(C)C)C2CCCCC2)NC(=O)[C@H](CC(=O)O)NC(=O)[C@H](CC(C)C)NC1=O [compound 403] (HELM PEPTIDE1{W.[meA].Q.K.I.L.D.E.H.[O=C([C@@H](N[*:1])C1CCCCC1)[*:2]].Q.R.V.W.G.[am]}$PEPTIDE1,PEPTIDE1,4:R3-8:R3$$$V2.0) | 0.76 | < 0.4 µM | > 30 µM |

The remaining lines, values ahead:

| β-Cat FP Hill slope [1] | Kd [1] | EC50 [2] | Structure (SMILES) |
| --- | --- | --- | --- |
| 0.79 | < 0.4 µM | > 30 µM | CC[C@H](C)[C@@H]1NC(=O)[C@@H](NC(=O)[C@H](CCC(N)=O)NC(=O)[C@H](C)N(C)C(=O)[C@H](Cc2c[nH]c3ccccc23)NC(C)=O)CCCCNC(=O)CC[C@@H](C(=O)N[C@@H](Cc2c[nH]cn2)C(=O)N[C@H](C(=O)N[C@@H](CCC(N)=O)C(=O)N[C@@H](CCCNC(=N)N)C(=O)N[C@H](C(=O)N[C@@H](Cc2c[nH]c3ccccc23)C(=O)NCC(N)=O)C(C)C)C2CCCCC2)NC(=O)[C@H](CC(=O)O)NC(=O)[C@H](CC(C)C)NC1=O [compound 404] (HELM PEPTIDE1{[ac].W.[meA].Q.K.I.L.D.E.H.[O=C([C@@H](N[*:1])C1CCCCC1)[*:2]].Q.R.V.W.G.[am]}$PEPTIDE1,PEPTIDE1,5:R3-9:R3$$$V2.0) |
| 1.6 | 0.4 to 1 µM | > 30 µM | CC[C@H](C)[C@H](NC(=O)[C@H](CO)NC(=O)[C@H](CCC(=O)O)NC(=O)[C@@H]1CCCN1C(=O)[C@H](CC(C)C)NC(=O)[C@H](CCCNC(=N)N)NC(=O)CCN)C(=O)N[C@@H](CC(C)C)C(=O)N[C@@H](CC(=O)O)C(=O)N[C@@H](CCC(=O)O)C(=O)N[C@@H](Cc1c[nH]cn1)C(=O)N[C@H](C(=O)N[C@@H](CCC(N)=O)C(=O)N[C@@H](CCCNC(=N)N)C(=O)N[C@H](C(=O)N[C@@H](Cc1c[nH]c2ccccc12)C(=O)N1CCC[C@H]1C(N)=O)C(C)C)C(C)C [compound 410] (HELM PEPTIDE1{[bAla].R.L.P.E.S.I.L.D.E.H.V.Q.R.V.W.P.[am]}$$$$V2.0) |
| 0.7 | 1 to 10 µM | > 30 µM | CC[C@H](C)[C@H](NC(=O)[C@@H](NC(=O)[C@H](CCC(N)=O)NC(=O)[C@@H]1CCCN1C(=O)[C@H](CC(=O)O)NC(=O)[C@H](CCC(=O)O)NC(=O)[C@H](CCC(=O)O)NC(=O)CCNC(C)=O)[C@@H](C)O)C(=O)N[C@@H](CC(C)C)C(=O)N[C@@H](CC(=O)O)C(=O)N[C@@H](CC(=O)O)C(=O)N[C@@H](Cc1c[nH]cn1)C(=O)N[C@@H](CC(C)C)C(=O)N[C@@H](CO)C(=O)N[C@@H](CCCNC(=N)N)C(=O)N[C@H](C(=O)N[C@@H](CC(C)C)C(=O)N[C@@H](CCCCN)C(N)=O)C(C)C [compound 412] (HELM PEPTIDE1{[ac].[bAla].E.E.D.P.Q.T.I.L.D.D.H.L.S.R.V.L.K.[am]}$$$$V2.0) |
| 0.7 | < 0.4 µM | > 30 µM | CC[C@H](C)[C@H](NC(=O)[C@H](CO)NC(=O)[C@H](CCC(=O)O)NC(=O)[C@@H]1CCCN1C(=O)[C@H](CC(C)C)NC(=O)[C@H](CCCNC(=N)N)NC(=O)CCNC(C)=O)C(=O)N[C@@H](CC(C)C)C(=O)N[C@@H](CC(=O)O)C(=O)N[C@@H](CCC(=O)O)C(=O)N[C@@H](Cc1c[nH]cn1)C(=O)N[C@H](C(=O)N[C@@H](CCC(N)=O)C(=O)N[C@@H](CCCNC(=N)N)C(=O)N[C@H](C(=O)N[C@@H](Cc1c[nH]c2ccccc12)C(=O)N1CCC[C@H]1C(N)=O)C(C)C)C(C)C [compound 413] (HELM PEPTIDE1{[ac].[bAla].R.L.P.E.S.I.L.D.E.H.V.Q.R.V.W.P.[am]}$$$$V2.0) |

Source: US12441768B2, “Compositions and methods for treating endometriosis” (EndoMet Biosciences, Inc., priority 2018, dated 2025)
